Values joined by “and” are separate entries in the source; they are usually repeats but may differ in a detail not shown here. Equal values may be shown once. “Also recorded” adds a separate entry of the source.
Tests used:
[1] = tested on: normal hematopoietic precursors; format: cell-based; conditions: DAC 0.5 μM, equimolar Ara-C, clinically relevant levels of HU; measured D6
SCD patients = conditions: human, in vivo; cited from earlier work
[2] = tested on: normal CD34+ hematopoietic cells; experiment: DNA damage (Fast Micromethod for DNA scission, γH2AX flow cytometry); conditions: for DNA damage (Fast Micro-method for DNA scission, γH2AX): decitabine 0.5 μM D1,3,5, Ara-C 0.5 μM D1,3,5, hydroxyurea 500 μM D1-5, measured D6
DNMTI = DNMTI (Homo sapiens, UniProt P26358); experiment: DNMTI depletion, Q-dot immunofluorescence assay in normal CD34+ hematopoietic precursor cells; format: cell-based; design: Normal CD34+ hematopoietic precursor cells were isolated from cord-blood; endogenous in cells; host or cells: normal human CD34+ hematopoietic precursor cells from cord blood
Chain of DNMTI (P26358 whole entry): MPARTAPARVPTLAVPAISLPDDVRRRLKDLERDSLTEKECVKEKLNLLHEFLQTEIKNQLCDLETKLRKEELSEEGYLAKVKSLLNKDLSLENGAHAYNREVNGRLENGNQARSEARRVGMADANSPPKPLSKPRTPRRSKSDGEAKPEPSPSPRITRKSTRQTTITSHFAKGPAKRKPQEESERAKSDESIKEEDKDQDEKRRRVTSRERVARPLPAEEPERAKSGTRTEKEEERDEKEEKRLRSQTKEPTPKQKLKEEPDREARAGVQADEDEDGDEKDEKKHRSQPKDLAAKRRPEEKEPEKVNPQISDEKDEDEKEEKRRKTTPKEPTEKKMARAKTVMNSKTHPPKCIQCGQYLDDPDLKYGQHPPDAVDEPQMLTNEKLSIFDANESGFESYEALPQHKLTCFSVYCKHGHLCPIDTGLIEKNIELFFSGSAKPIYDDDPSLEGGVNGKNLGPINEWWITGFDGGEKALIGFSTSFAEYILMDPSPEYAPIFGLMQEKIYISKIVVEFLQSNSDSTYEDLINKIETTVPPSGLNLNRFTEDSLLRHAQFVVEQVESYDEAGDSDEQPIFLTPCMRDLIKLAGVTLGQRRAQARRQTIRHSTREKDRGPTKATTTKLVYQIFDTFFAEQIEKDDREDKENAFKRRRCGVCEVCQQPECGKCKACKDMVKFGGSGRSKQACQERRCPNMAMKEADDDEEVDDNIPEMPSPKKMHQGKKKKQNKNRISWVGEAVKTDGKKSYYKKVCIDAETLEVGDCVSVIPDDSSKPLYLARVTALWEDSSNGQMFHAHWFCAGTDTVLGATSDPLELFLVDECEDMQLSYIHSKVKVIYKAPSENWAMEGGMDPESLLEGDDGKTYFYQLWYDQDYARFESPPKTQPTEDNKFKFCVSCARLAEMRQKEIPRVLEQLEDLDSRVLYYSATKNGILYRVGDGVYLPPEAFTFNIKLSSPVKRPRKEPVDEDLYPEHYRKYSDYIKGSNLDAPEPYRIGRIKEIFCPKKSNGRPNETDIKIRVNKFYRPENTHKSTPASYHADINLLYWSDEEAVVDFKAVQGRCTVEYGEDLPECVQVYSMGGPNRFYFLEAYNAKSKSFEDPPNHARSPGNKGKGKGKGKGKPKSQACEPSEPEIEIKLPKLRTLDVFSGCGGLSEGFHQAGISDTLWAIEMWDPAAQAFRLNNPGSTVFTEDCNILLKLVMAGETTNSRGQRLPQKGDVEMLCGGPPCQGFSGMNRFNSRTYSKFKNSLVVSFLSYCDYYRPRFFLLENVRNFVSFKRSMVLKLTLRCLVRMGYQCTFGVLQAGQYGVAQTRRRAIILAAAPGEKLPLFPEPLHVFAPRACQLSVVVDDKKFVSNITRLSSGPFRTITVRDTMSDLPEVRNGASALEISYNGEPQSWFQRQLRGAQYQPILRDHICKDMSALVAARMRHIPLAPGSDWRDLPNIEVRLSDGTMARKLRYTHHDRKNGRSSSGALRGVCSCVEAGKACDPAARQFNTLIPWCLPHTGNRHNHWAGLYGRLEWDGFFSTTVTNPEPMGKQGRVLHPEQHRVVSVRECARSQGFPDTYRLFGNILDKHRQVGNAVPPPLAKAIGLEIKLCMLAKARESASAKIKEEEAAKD
Protocol: Decitabine is shown herein to deplete DNMTI without causing measurable DNA damage. Decitabine at a concentration of 0.2-0.5 μM depletes DNMTI in normal hematopoietic precursor cells (data not shown). Normal CD34+ hematopoietic precursor cells were isolated from cord-blood. A Q-dot based immunofluorescence assay quantifies DNMTI depletion by various doses of decitabine. Q-dot conjugated 2° ab against anti-DNMTI 1° ab allows quantification of DNMTI depletion in normal human CD34+ hematopoietic cells exposed to various levels of decitabine. DNMTI was quantified in 500 cells for each treatment condition. DAPI was used to stain the nuclei Image-quant software is used to quantify the DNMTI by the Mean Intensity Fluorescence (MIF) variable. Decitabine levels were assessed in μM.
The kinetics of DNMTI depletion and recovery in normal hematopoietic precursors exposed to a IX addition of DAC 0.5 μM. DNMTI was quantified with a Q dot-based assay. Nuclei were stained with DAPI. […] Measurement was performed on D6.

[3] = tested on: Reno-1 renal cell cancer xenograft
Protocol: In an effort to apply the proposed formulation and regimen to treat different cancer histologies, a renal cell cancer cell-line (Reno-1) was developed from a surgical sample of renal cancer and used in a xeno-transplantation experiment. […] The percentage of necrosis in each tissue section was evaluated in a blinded fashion.

[4] = tested on: normal hematopoietic precursors; experiment: Cell cycle status (propidium iodide flow cytometry)
Kasumi-1 cells = experiment: Cell counts and morphology; format: cell-based, human
Source text: (§1) The Kasumi-1 cell-line is derived from a patient with AMLI-ETO leukemia and represents a late-stage model of transformation and malignant evolution.

PUER cells = experiment: PUER model of Pu.1-mediated differentiation; format: cell-based, murine
Source text: Terminal differentiation is critically dependent on lineage-determining transcription factors such as PU.1. […] The murine PUER cell-line is derived from Pu.1 knock-out cells, which have been transduced with a retroviral vector which expresses Pu.1 fused to the estrogen-receptor. Addition of the estrogen agonist tamoxifen (OHT) to these cells causes Pu.1 to be functionally reintroduced into the cell through translocation into the nucleus, and triggers terminal differentiation.
Flow cytometry was used to measure F4/80 as a marker of terminal macrophage differentiation and c-Kit as marker of stem-cells.

[5] = cited from earlier work
[6] = tested on: solid tumor cell-lines (renal cancer, small cell lung cancer, hepatocellular cancer, prostate cancer, bladder cancer); experiment: Differentiation of solid tumor cell-lines; format: cell-based; conditions: decitabine 0.5 μM
baboons = experiment: Pharmacodynamic responses (HbF %, neutrophil counts) to decitabine with or without THU in baboons; format: in vivo, baboon; design: ANC nadir: unit not given here
Protocol: Fetal hemoglobin expression, HbF %, pre and post treatment with the indicated dose of decitabine. […] Oral treatment was with decitabine or a slightly modified decitabine (decitabine-mesylate—Dac-m).
Decitabine was administered at the doses indicated in two consecutive blocks of 5 days each. THU at the indicated doses was administered 60 minutes before each decitabine dose.

[7] = tested on: subjects with HU refractory SCD; conditions: cited from earlier work
[8] = tested on: MA9 xenograft model of human leukemia; experiment: MA9 xenograft model of human leukemia, survival; format: in vivo, mice; conditions: intraperitoneal decitabine alone, I mg/m^2 3×/week
Protocol: The MA9 xenograft model of human leukemia was treated with intraperitoneal decitabine alone (I mg/m^2 3×/week). Decitabine increased survival by approximately 20%, but all mice succumbed to leukemia (FIG. 10). […] CDA is the most important pharmacologic barrier to successful translation of in vitro findings into in vivo therapy. The invention addresses this barrier to effective clinical translation of the in vitro observations.

[9] = cited from earlier work; remark: listed apart in the source
Reno-1 cells = experiment: Morphology of Giemsa-stained Reno-1 cells cultured with decitabine; format: cell-based
CD34 AMLI-ETO cells = experiment: Cell counts, morphology and colony formation; format: cell-based
Source text: as §1

normal CD34+ cells = experiment: Cell counts, morphology and colony formation; format: cell-based
Source text: as §1

[10] = tested on: primary leukemia cells from patients; conditions: decitabine 0.5 μM added 2×/week
[11] = non-DNA-damaging DNMTI-depleting decitabine
[12] = Oral 9.35 mg/kg/d, individual baboons, listed as Dac, 9.35 mg/kg/day
[13] = Oral 18.7 mg/kg/d, individual baboons
[14] = SQ 0.52 mg/kg/d, individual baboons, listed as Dac
[15] = last 20 of 36 wks, individual subjects
[16] = last 20 weeks, base-line 3.12 ± 2.75

In the case of `NC(=O)NO` [hydroxyurea], the “apoptosis (annexin V-FITC and 7AAD double staining)” value [1] is given as “cause significant apoptosis and cell-death”, the “HU compliant patients in whom HbF levels are not increased” value (SCD patients) is given as “approximately 40%” and the “DNA damage (Fast Micro-method for DNA scission, γH2AX)” value [2] is given as “cause significant DNA damage”.

With `Nc1ncn([C@H]2C[C@H](O)[C@@H](CO)O2)c(=O)n1` [Decitabine, 5-aza-2′-deoxycytidine] the “threshold concentration required to deplete DNMT” value (DNMTI) was “approximately 0.2 μM”, the “decitabine concentration that depletes DNMTI” value (DNMTI; normal hematopoietic precursor cells, data not shown) was 0.2 to 0.5 µM and the tumor volume ([3]; SQ 3×/week, I mg/ni2, starting on Day 9, p<0.001 vs PBS or Sunitinib) was “significantly decreased tumor volume”. For the same compound, the “necrosis in H&E stained tumor sections” value ([3]; data not shown) was “demonstrated necrosis”, the “toxicity in the mice (weight, appearance, blood counts)” value ([3]; mouse, in vivo) was “without evidence of toxicity” and the “time of rebound increase in S-phase/G2M after drug exposure” value [4] was “approximately 48 h”. The cell cycle effect ([4]; non-DNA-damaging, DNMTI-depleting levels) was “transient cell-cycle arrest followed by rebound hyperproliferation”, the morphology (Kasumi-1 cells) was “morphologically differentiated” and the cell counts (Kasumi-1 cells; [11]) was “leukemia cells decline”. The gene expression (PUER cells; decitabine added 6 hours after OHT) was “increased pro-differentiation gene expression”, the differentiation and proliferation (PUER cells; decitabine added concurrent with Pu.1 activation (OHT)) was “impaired Pu.1-mediated terminal differentiation and preserved some cell proliferation” and the in vitro half-life [5] was 5 to 9 h. The “DAC concentration required to induce measurable DNA damage” value ([2]; 24 hours after exposure, γH2AX, Fast Micromethod) was greater than 0.5 µM, the “DNA damage and apoptosis” value ([2]; DAC 1 μM) was “caused measurable DNA damage and apoptosis” and the “DNA damage (γH2AX, Fast Micromethod) or apoptosis (annexin)” value ([2]; DAC up to 0.5 μM) was “did not cause measurable DNA damage”. For the same compound, the “DNA damage (H2AX) in combination with THU” value ([2]; DAC up to 0.5 μM with THU 0.1 or 100 μM, 24 hours, listed as DAC) was “did not cause significant DNA damage; also recorded: did not significantly increase DNA damage”, the “DNA damage (Fast Micro-method for DNA scission, γH2AX)” value [2] was “does not cause measurable DNA damage” and the DNA damage ([2]; decitabine 1.0 μM) was “causes measurable DNA damage”. For the same compound, the “differentiation (morphologic changes)” value [6] was “terminally differentiated”, the “early apoptosis (Annexin staining)” value [6] was “did not cause early apoptosis” and the Post-HbF % (baboons; Oral 0.3 mg/kg/d 60 minutes after oral THU 20 mg/kg, baboon 6974) was 28.4%. For the same compound, the Post-HbF % (baboons; Oral 1.42 mg/kg/d 60 minutes after oral THU 20 mg/kg, baboon 7001) was 61.6%, the Post-HbF % (baboons; Oral 9.35 mg/kg/d without THU, two blocks of 5 days, individual baboons, listed as Dac, 9.35 mg/kg/day) was 17.4% and 40.5% and the ANC nadir (baboons; [12]) was 1331 and 749. For the same compound, the Post-HbF % (baboons; [12]) was 17.4% and 72.0%, the ANC nadir (baboons; [13]) was 1969 and the Post-HbF % (baboons; [13]) was 68.1%. The ANC nadir (baboons; [14]) was 1491 and 524 and 1320 and 1668, the Post-HbF % (baboons; [14]) was 66.1% and 86.3% and 76.3% and 68.8% and the ANC nadir ([7]; at optimal drug dose for each subject) was greater than 1.5e+09 L⁻¹. The “individual maximal F-cell numbers, range” value ([7]; during the trial) was 58-87%, the “maximal F-cell numbers, average over all 7 subjects” value ([7]; during the trial) was 69±10.12% and the non-hematologic toxicity ([7]; in vivo) was “no non-hematologic toxicity occurred”. The “HbF Avg” value ([7]; last 20 of 36 wks, IV 0.3 mg/kg/day cycles, individual subjects, 0.3 mg/kg/day) was 10.80 ± 2.05% and 16.42 ± 2.81% and 16.70 ± 2.55% and 12.40 ± 1.25% and 14.55 ± 1.32% and 12.75 ± 2.28%, the “HbF Max” value [7, 15] was 14.4% (2×) and 24.6% and 23.2% and 16.3% and 17.2% and the “Total Hemoglobin Avg” value [7, 15] was 8.28 ± 0.52 g/dL and 8.91 ± 0.57 g/dL and 8.92 ± 0.79 g/dL and 9.05 ± 0.48 g/dL and 9.37 ± 0.60 g/dL and 8.34 ± 0.55 g/dL. The “Total Hemoglobin Max” value [7, 15] was 9.0 g/dL and 9.6 g/dL (2×) and 10.4 g/dL and 10.3 g/dL and 9.5 g/dL, the “average ANC” value ([7]; last 20 weeks of treatment, pretreatment 4.6±1.56) was 4.2±1.35 ×109/L and the “HbF Avg, Mean ± SD of subjects” value [7, 16] was 13.93±2.35%. The “HbF Max, Mean ± SD of subjects” value [7, 16] was 18.35% and 18.35 ± 4.46%, the “Total Hemoglobin Avg, Mean ± SD of subjects” value ([7]; last 20 weeks) was 8.81 ± 0.42 g/dL and the “Total Hemoglobin Max, Mean ± SD of subjects” value ([7]; last 20 weeks) was 9.7 ± 0.53 g/dL and 9.73 ± 0.53 g/dL. For the same compound, the “lowest ANC” value ([7]; two HU non-responder subjects) was no less than 2e+09 L⁻¹, the increase in survival [8] was “approximately 20%” and the half-life in vivo [9] was less than 0.333 h. The “cell morphology in vitro” value (Reno-1 cells) was “increase in size and demonstrate prominent nuclear chromatin clumps”, the morphology (CD34 AMLI-ETO cells) was “morphologically differentiated” and the colony forming ability (CD34 AMLI-ETO cells; data not shown) was “colony forming ability is abrogated”. The cell counts (CD34 AMLI-ETO cells; [11]) was “leukemia cells decline”, the colony-forming ability (normal CD34+ cells) was “maintains colony-forming ability” and the morphology (normal CD34+ cells; data not shown) was “retained primitive morphology”. The cell counts (normal CD34+ cells; non-DNA-damaging DNMTI-depleting decitabine, Ara-C equimolar) was “proliferation of normal cells” and the “terminal myelomonocytic differentiation (Giemsa staining)” value [10] was 12 of 14.
